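Where inhibition never reached the appropriate level, the endpoint shown equals the highest concentration tested. Otherwise, values were interpolated linearly from a five-concentration, 48-hour dose response in 96-well plates. Abbreviation: GI50, concentration required for 50% inhibition of growth.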 Activity calls are given as the source filed them. Cut-off read from the data, not from the text of the source: active = GI50 up to about 1.1 µM and inactive = higher.
Legend:
Assay in all cases: NCI-60 cell line screen, 48 h
HCT-116 = tested on: HCT-116
SK-OV-3 = tested on: SK-OV-3
OVCAR-5 = tested on: OVCAR-5
786-0 = tested on: 786-0
TK-10 = tested on: TK-10
A498 = tested on: A498
NCI/ADR-RES = tested on: NCI/ADR-RES
CCRF-CEM = tested on: CCRF-CEM
NCI-H460 = tested on: NCI-H460
UO-31 = tested on: UO-31
SK-MEL-2 = tested on: SK-MEL-2
T47D = tested on: T47D
BT-549 = tested on: BT-549
PC-3 = tested on: PC-3
K562 = tested on: K562
DU-145 = tested on: DU-145
HOP-92 = tested on: HOP-92
U-251 = tested on: U-251
Malme-3M = tested on: Malme-3M
NCI-H226 = tested on: NCI-H226

| SMILES | GI50 (HCT-116) | GI50 (SK-OV-3) | GI50 (OVCAR-5) | GI50 (786-0) | GI50 (TK-10) | GI50 (A498) | GI50 (NCI/ADR-RES) | GI50 (CCRF-CEM) | GI50 (NCI-H460) | GI50 (UO-31) | GI50 (SK-MEL-2) | GI50 (T47D) | GI50 (BT-549) | GI50 (PC-3) | GI50 (K562) | GI50 (DU-145) | GI50 (HOP-92) | GI50 (U-251) | GI50 (Malme-3M) | GI50 (NCI-H226) |
| --- | --- | --- | --- | --- | --- | --- | --- | --- | --- | --- | --- | --- | --- | --- | --- | --- | --- | --- | --- | --- |
| Cc1ccc(O)c(C2=CC3=NNC(=O)C3C(c3cccc(Cl)c3)C2)c1 (stereo unspecified) | 30.9 µM (inactive) | 23.9 µM (inactive) | 51.6 µM (inactive) | 52.1 µM (inactive) | 28.1 µM (inactive) | 61.9 µM (inactive) | 50.4 µM (inactive) | 31.6 µM (inactive) | 32.4 µM (inactive) | 71.6 µM (inactive) | 28.2 µM (inactive) | 28.1 µM (inactive) | 26.7 µM (inactive) | 40.6 µM (inactive) | 37.1 µM (inactive) | 43.4 µM (inactive) | 24 µM (inactive) | 35.5 µM (inactive) | 35.3 µM (inactive) |  |
| C[C@]12[C@@H]3CC[C@H]1[C@@H](O)C(=O)N2CC3 | > 100 µM (inactive) | > 100 µM (inactive) | > 100 µM (inactive) | > 100 µM (inactive) | > 100 µM (inactive) | > 100 µM (inactive) | > 100 µM (inactive) | > 100 µM (inactive) | > 100 µM (inactive) | > 100 µM (inactive) | > 100 µM (inactive) | > 100 µM (inactive) | > 100 µM (inactive) | > 100 µM (inactive) | > 100 µM (inactive) | > 100 µM (inactive) | > 100 µM (inactive) | > 100 µM (inactive) | > 100 µM (inactive) |  |
| COC(=O)C1CC2CCC1(O[Si](C(C)C)(C(C)C)C(C)C)C(O)C2 (stereo unspecified) | 18.2 µM (inactive) | 43.4 µM (inactive) | 14.2 µM (inactive) | 16.9 µM (inactive) |  | 96.6 µM (inactive) | 31.8 µM (inactive) | 24.3 µM (inactive) | 33.7 µM (inactive) | 16.6 µM (inactive) | 15.1 µM (inactive) | 25.8 µM (inactive) | 26.9 µM (inactive) | 20.7 µM (inactive) | 12.4 µM (inactive) | 16.4 µM (inactive) |  | 16.5 µM (inactive) | 54.2 µM (inactive) | 21.2 µM (inactive) |
| COc1ccc2nc(N/N=C/c3ccc(C)s3)cc(C)c2c1 | 4.65 µM (inactive) | 22.9 µM (inactive) | 15.7 µM (inactive) | 13 µM (inactive) | 21.6 µM (inactive) |  | 19.7 µM (inactive) | 28.1 µM (inactive) |  | 17.7 µM (inactive) | 21.7 µM (inactive) | 17.1 µM (inactive) | 14.9 µM (inactive) | 17.1 µM (inactive) | 14 µM (inactive) | 17.7 µM (inactive) | 13.9 µM (inactive) | 21.1 µM (inactive) | 31 µM (inactive) | 14.8 µM (inactive) |
| Cc1c(CN2CCOCC2)c(CN2CCOCC2)c(C)n1-c1ccc(Cl)cn1 | > 100 µM (inactive) | > 100 µM (inactive) | > 100 µM (inactive) | > 100 µM (inactive) | > 100 µM (inactive) | > 100 µM (inactive) | > 100 µM (inactive) | > 100 µM (inactive) | > 100 µM (inactive) | > 100 µM (inactive) | > 100 µM (inactive) | > 100 µM (inactive) | > 100 µM (inactive) | > 100 µM (inactive) | > 100 µM (inactive) | > 100 µM (inactive) |  | > 100 µM (inactive) | > 100 µM (inactive) | > 100 µM (inactive) |
| CCOC(=O)C(=C(SC)SC)c1nn2c(=O)cc(C)nc2s1 | 16.4 µM (inactive) | 69.7 µM (inactive) | 28.4 µM (inactive) | 19.1 µM (inactive) | 23.4 µM (inactive) |  | 36.5 µM (inactive) | 22.6 µM (inactive) | 24 µM (inactive) | 19.5 µM (inactive) | 20.1 µM (inactive) | 17 µM (inactive) | 18.2 µM (inactive) | 23.3 µM (inactive) | 19.2 µM (inactive) | 16.5 µM (inactive) | 16.9 µM (inactive) | 23.6 µM (inactive) | 15.9 µM (inactive) | 21.4 µM (inactive) |
| Nc1ccc(SC23CC4CC(CC(C4)C2)C3)cc1 | > 100 µM (inactive) | > 100 µM (inactive) | > 100 µM (inactive) | > 100 µM (inactive) | > 100 µM (inactive) | > 100 µM (inactive) | > 100 µM (inactive) | > 100 µM (inactive) | > 100 µM (inactive) | > 100 µM (inactive) | > 100 µM (inactive) | > 100 µM (inactive) | > 100 µM (inactive) | > 100 µM (inactive) | > 100 µM (inactive) | > 100 µM (inactive) |  | 78.3 µM (inactive) | > 100 µM (inactive) | < 0.01 µM (active) |

Source: ChEMBL document CHEMBL1201862, “PubChem BioAssay data set” (2004)
